According to ChEMBL document CHEMBL4330066, “Carbohydrate-naphthalene diimide conjugates as potential antiparasitic drugs: Synthesis, evaluation and structure-activity studies” (Eur J Med Chem, 2019):
Activity calls are given as the source filed them. The rule behind the calls is not given here.

Tests used:
[1] = Cytotoxicity against human THP1 cells; format: cell-based; conditions: THP-1 cells, read-out: TC50 (the source's name)
MRC5 = assay: Cytotoxicity against human MRC5 cells assessed as reduction in cell viability after 48 hrs by MTT assay; format: cell-based; conditions: MRC5, 48 h
Trypanosoma brucei [2] = assay: Trypanocidal activity against Trypanosoma brucei Lister 427, antigenic type MiTat 1.2, clone 221a after 72 hrs by alamarBlue assay; format: functional, organism-based; conditions: Lister 427, 72 h
[3] = Selectivity index, ratio of TC50 for human THP1 cells to IC50 for Leishmania major MHOM/IL/80/Friedlin amastigotes; format: toxicity; conditions: THP1 cells versus Leishmania major amastigotes, read-out: Selectivity Index
Leishmania major [4] = assay: Leishmaniacidal activity against Leishmania major MHOM/IL/80/Friedlin promastigotes after 72 hrs by MTT assay; format: functional, organism-based
[5] = Selectivity index, ratio of IC50 for human MRC5 cells to IC50 for Trypanosoma brucei Lister 427, antigenic type MiTat 1.2, clone 221a; format: toxicity; conditions: MRC5 cells versus Trypanosoma brucei Lister 427, read-out: Ratio IC50
Leishmania major [6] = assay: Leishmaniacidal activity against Leishmania major MHOM/IL/80/Friedlin amastigotes infected in human THP1 cells after 72 hrs by luciferase luminescence assay; format: functional, organism-based; conditions: THP-1, 72 h
[7] = Drug localization in nucleus of Trypanosoma brucei at 5 x 10^-6 M after 4 hrs by DAPI staining-based fluorescence confocal microscopy method; format: ADME, subcellular; conditions: 5 µM
Trypanosoma brucei [8] = assay: Stabilization of 5'-FAM /3'-Tamra labelled Trypanosoma brucei F21T G-quadruplex DNA at 2 x 10^-6 M by FRET melting assay
Trypanosoma brucei [9] = assay: Stabilization of 5'-FAM /3'-Tamra labelled Trypanosoma brucei EBR1-FT G-quadruplex DNA at 2 x 10^-6 M by FRET melting assay
Trypanosoma brucei [10] = assay: Stabilization of Trypanosoma brucei EBR1 G-quadruplex DNA up to 30 x 10^-6 M by CD titration assay
Quadruplex DNA [11] = assay: Stabilization of 22AG telomeric G-quadruplex DNA (unknown origin) assessed as red shift at 8 uM by fluorescence absorption emisssion spectroscopy method; format: nucleic-acid assay
Quadruplex DNA [12] = assay: Binding affinity to 22AG telomeric G-quadruplex DNA (unknown origin) assessed as association constant by fluorescence titration assay; format: nucleic-acid assay
Trypanosoma brucei [13] = assay: Stabilization of 5'-FAM /3'-Tamra labelled Trypanosoma brucei F21T G-quadruplex DNA in presence of 1 x 10^-5 M dsDNA competitior by FRET melting assay
Trypanosoma brucei [14] = assay: Binding affinity to Trypanosoma brucei EBR1 G-quadruplex DNA assessed as association constant by fluorescence titration assay
Trypanosoma brucei [15] = assay: Stabilization of 5'-FAM /3'-Tamra labelled Trypanosoma brucei F21T G-quadruplex DNA in presence of 3 x […] M dsDNA competitior by FRET melting assay
Trypanosoma brucei [16] = assay: Stabilization of 5'-FAM /3'-Tamra labelled Trypanosoma brucei EBR1-FT G-quadruplex DNA in presence of 1 x 10^-5 M dsDNA competitior by FRET melting assay relative to control
[17] = Drug localization in kinetoplast of Trypanosoma brucei at 5 x 10^-6 M after 4 hrs by DAPI staining-based fluorescence confocal microscopy method; format: ADME, subcellular; conditions: 5 µM
[18] = Drug uptake in Trypanosoma brucei assessed as reduction in intracellular fluorescence at 5 x 10^-6 M at 4 degreeC incubated for 90 mins by flow cytometric analysis relative to drug uptake at 37 degC; format: ADME, cell-based; conditions: 1.5 h, 5 µM
Quadruplex DNA [19] = assay: Stabilization of 22AG telomeric G-quadruplex DNA (unknown origin) assessed as reduction in emission at 8 uM by fluorescence absorption emisssion spectroscopy method; format: nucleic-acid assay; set-up: scale not given: the % may be the effect or the level left
[20] = Drug uptake in Trypanosoma brucei at 5 x 10^-6 M at 37 degC incubated for 90 mins by flow cytometric analysis; format: ADME; conditions: 1.5 h, 5 µM
Erythrocyte = assay: Hemolytic activity in mouse RBC after 1 hr; format: ADME, cell-based
[21] = Drug uptake in Trypanosoma brucei assessed as reduction in intracellular fluorescence at 5 x 10^-6 M at 4 to 37 degreeC by flow cytometric analysis; format: ADME, cell-based; conditions: 5 µM, TDE = time-dependent effect
Trypanosoma brucei [22] = assay: Stabilization of 5'-FAM /3'-Tamra labelled Trypanosoma brucei F21T G-quadruplex DNA assessed as change in melting temperature at 5 x 10^-7 M by FRET melting assay
Trypanosoma brucei [23] = assay: Stabilization of 5'-FAM /3'-Tamra labelled Trypanosoma brucei EBR1-FT G-quadruplex DNA assessed as change in melting temperature at 5 x 10^-7 M by FRET melting assay
Trypanosoma brucei [24] = assay: Stabilization of 5'-FAM /3'-Tamra labelled Trypanosoma brucei EBR1-FT G-quadruplex DNA assessed as change in melting temperature at 0.5 x 10^-6 M by FRET melting assay
Trypanosoma brucei [25] = assay: Stabilization of 5'-FAM /3'-Tamra labelled Trypanosoma brucei EBR1-FT G-quadruplex DNA assessed as impeding of completing melting of DNA at 2 x 10^-6 M by FRET melting assay
Quadruplex DNA [26] = assay: Stabilization of 22AG telomeric G-quadruplex DNA (unknown origin) assessed as reduction in emission at 8 uM by fluorescence absorption emisssion spectroscopy method relative to control; format: nucleic-acid assay; set-up: scale not given: the % may be the effect or the level left

Row | SMILES | CC50 [1] [nM] | IC50 (MRC5) [nM] | IC50 (Trypanosoma brucei [2]) [nM] | selectivity ratio [3] | IC50 (Leishmania major [4]) [nM] | selectivity ratio [5] | IC50 (Leishmania major [6]) [nM] | further results
1 | CN(C)CCCN1C(=O)c2ccc3c4c(c(NCCCn5cc(COCCOCCOCCO[C@@H]6O[C@H](CO)[C@@H](O[C@H]7O[C@H](CO)[C@@H](O)[C@H](O)[C@H]7O)[C@H](O)[C@H]6O)nn5)cc(c24)C1=O)C(=O)N(CCCN(C)C)C3=O | > 10000 | 3300 | 40 | > 2.2 | 160 | 82.5 | 4520 | 
2 | CN(C)CCCN1C(=O)c2ccc3c4c(c(NCCCn5cc(COCCOCCOCCO[C@@H]6O[C@H](CO)[C@@H](O[C@@H]7O[C@H](CO)[C@H](O)[C@H](O)[C@H]7O)[C@H](O)[C@H]6O)nn5)cc(c24)C1=O)C(=O)N(CCCN(C)C)C3=O | 5710 | 240 | 40 | 10.8 | 170 | 6 | 530 | Drug uptake [7]: Active; Activity (Trypanosoma brucei [8]): Active; Activity (Trypanosoma brucei [9]): Active; Activity (Trypanosoma brucei [10]): Active; Activity (Quadruplex DNA [11]): Active; Ka (Quadruplex DNA [12]): 8.4 ×10⁵ /M; Activity (Trypanosoma brucei [13]): Active; Ka (Trypanosoma brucei [14]): 1.1 ×10⁶ /M; Activity (Trypanosoma brucei [15]): inactive; Activity (Trypanosoma brucei [16]): Active; Drug uptake [17]: Active
3 | CCCNc1cc2c3c(ccc4c3c1C(=O)N(CCCN(C)C)C4=O)C(=O)N(CCCN(C)C)C2=O | 3650 |  | 9 | 6 |  | 40 | 610 | 
4 | CN(C)CCCN1C(=O)c2ccc3c4c(c(NCCCn5cc(CO[C@H]6O[C@H](CO)[C@@H](O)[C@H](O)[C@@H]6O)nn5)cc(c24)C1=O)C(=O)N(CCCN(C)C)C3=O | 1780 | 230 | 210 | 3.8 | 2410 | 1.1 | 470 | 
5 | CN(C)CCCN1C(=O)c2ccc3c4c(c(NCCCn5cc(CCO[C@@H]6O[C@H](CO)[C@@H](O[C@@H]7O[C@H](CO)[C@H](O)[C@H](O)[C@H]7O)[C@H](O)[C@H]6O)nn5)cc(c24)C1=O)C(=O)N(CCCN(C)C)C3=O | > 10000 | 1170 | 330 | > 2.1 | 1930 | 3.5 | 4710 | 
6 | CN(C)CCCN1C(=O)c2ccc3c4c(c(NCCCn5cc(CCO[C@@H]6O[C@H](CO)[C@@H](O)[C@H](O)[C@H]6O)nn5)cc(c24)C1=O)C(=O)N(CCCN(C)C)C3=O | 2180 | 450 | 60 | 3 | 70 | 7.5 | 720 | Drug uptake [7]: Active; Drug uptake [18]: 36%; Activity (Trypanosoma brucei [8]): Active; Activity (Trypanosoma brucei [9]): Active; Activity (Trypanosoma brucei [10]): Active; Activity (Quadruplex DNA [11]): 10 nm; Activity (Quadruplex DNA [19]): 10%; Ka (Quadruplex DNA [12]): 9.2 ×10⁵ /M; Activity (Trypanosoma brucei [13]): Active; Ka (Trypanosoma brucei [14]): 1.2 ×10⁶ /M; Drug uptake [20]: Active; Activity (Trypanosoma brucei [15]): inactive; Activity (Erythrocyte): Non-Toxic; Drug uptake [21]: Tde; Activity (Trypanosoma brucei [16]): Active; Drug uptake [17]: Active
7 | CN(C)CCCc1cc2c3c(c(NCCCn4cc(CCO[C@@H]5O[C@H](CO)[C@@H](O)[C@H](O)[C@H]5O)nn4)cc4c3c1C(=O)N(CCCN(C)C)C4=O)C(=O)N(CCCN(C)C)C2=O |  | 7250 | 240 |  | 9770 | 30.2 |  | Drug uptake [7]: Active; Activity (Trypanosoma brucei [8]): inactive; ΔTm (Trypanosoma brucei [22]): 22.1 °C; Activity (Trypanosoma brucei [10]): Active; ΔTm (Trypanosoma brucei [23]): 11.5 °C; Ka (Quadruplex DNA [12]): 4.4 ×10⁶ /M; Activity (Trypanosoma brucei [13]): Active; ΔTm (Trypanosoma brucei [24]): 24 °C; Ka (Trypanosoma brucei [14]): 1 ×10⁷ /M; Activity (Trypanosoma brucei [15]): inactive; Activity (Trypanosoma brucei [25]): Active; Activity (Erythrocyte): Non-Toxic; Activity (Trypanosoma brucei [16]): inactive; Activity (Quadruplex DNA [26]): 40%; Drug uptake [17]: Active
8 | CN(C)CCCN1C(=O)c2ccc3c4c(c(NCc5cn(CCO[C@@H]6O[C@H](CO)[C@@H](O)[C@H](O)[C@H]6O)nn5)cc(c24)C1=O)C(=O)N(CCCN(C)C)C3=O | 8650 |  | 17 | 2 |  |  | 4420 | 
9 | CN(C)CCCN1C(=O)c2ccc3c4c(c(NCCCn5cc(CO[C@@H]6O[C@H](CO)[C@@H](O[C@@H]7O[C@H](CO)[C@H](O)[C@H](O)[C@H]7O)[C@H](O)[C@H]6O)nn5)cc(c24)C1=O)C(=O)N(CCCN(C)C)C3=O | 9290 | 1240 | 370 | 2 | 1030 | 3.4 | 4720 | 
10 | CN(C)CCCc1cc2c3c(c(NCCCn4cc(CO[C@@H]5O[C@H](CO)[C@@H](O)[C@H](O)[C@H]5O)nn4)cc4c3c1C(=O)N(CCCN(C)C)C4=O)C(=O)N(CCCN(C)C)C2=O | > 10000 | 850 | 150 | > 3.8 | 490 | 5.7 | 2630 | 
11 | CN(C)CCCN1C(=O)c2ccc3c4c(c(NCc5cn([C@@H]6O[C@H](CO)[C@@H](O)[C@H](O)[C@H]6O)nn5)cc(c24)C1=O)C(=O)N(CCCN(C)C)C3=O | 8100 |  | 24 | 2.1 |  |  | 3910 | 
12 | CN(C)CCCN1C(=O)c2ccc3c4c(c(NCCCn5cc(COCCOCCOCCO[C@@H]6O[C@H](CO)[C@@H](O)[C@H](O)[C@H]6O)nn5)cc(c24)C1=O)C(=O)N(CCCN(C)C)C3=O | 1860 | 730 | 440 | 3.9 | 480 | 1.6 | 480 | Drug uptake [7]: Active; Activity (Trypanosoma brucei [8]): Active; Activity (Trypanosoma brucei [9]): Active; Activity (Trypanosoma brucei [10]): Active; Activity (Quadruplex DNA [11]): Active; Ka (Quadruplex DNA [12]): 4.8 ×10⁵ /M; Activity (Trypanosoma brucei [13]): Active; Ka (Trypanosoma brucei [14]): 6.9 ×10⁵ /M; Activity (Trypanosoma brucei [15]): inactive; Activity (Trypanosoma brucei [16]): Active; Drug uptake [17]: Active
13 | CN(C)CCCN1C(=O)c2ccc3c4c(c(NCCCn5cc(CO[C@@H]6O[C@H](CO)[C@@H](O)[C@H](O)[C@H]6O)nn5)cc(c24)C1=O)C(=O)N(CCCN(C)C)C3=O | 1440 | 260 | 220 | 2.2 | 430 | 1.2 | 660 | 
14 | CN(C)CCCN1C(=O)c2ccc3c4c(c(NCCCn5cc(CCO[C@@H]6O[C@H](CO)[C@@H](O[C@H]7O[C@H](CO)[C@@H](O)[C@H](O)[C@H]7O)[C@H](O)[C@H]6O)nn5)cc(c24)C1=O)C(=O)N(CCCN(C)C)C3=O | 1520 | 220 | 130 | 3.5 | 4680 | 1.7 | 430 | 
15 | CN(C)CCCc1cc2c3c(c(NCCCn4cc(CCO[C@H]5O[C@H](CO)[C@@H](O)[C@H](O)[C@@H]5O)nn4)cc4c3c1C(=O)N(CCCN(C)C)C4=O)C(=O)N(CCCN(C)C)C2=O | > 10000 | 5150 | 310 |  | 1970 | 16.6 | > 5000 | 
16 | CN(C)CCCc1cc2c3c(c(NCCCn4cc(COCCOCCOCCO[C@@H]5O[C@H](CO)[C@@H](O)[C@H](O)[C@H]5O)nn4)cc4c3c1C(=O)N(CCCN(C)C)C4=O)C(=O)N(CCCN(C)C)C2=O | > 10000 | 8850 | 350 | > 2.8 | 270 | 25.3 | 3590 | 
